Structures can show the parent of a compound that is named as a salt.

For assay [1], the system named is SMN protein in SMA patient fibroblast cells (GM03813). Put plainly: SMN protein assay (HTRF) in cultured cells. The format is cell-based. As to conditions: Homo sapiens, SMA Type 1 patient fibroblasts, 48 hours; for EC (1.5-fold): 7-point concentration curve, concentration giving 1.5 times SMN protein vs vehicle, read-out: EC1.5x SMN protein (EC1.5x concentration for SMN protein expression); for maximal fold induction: fold increase relative to vehicle control, read-out: Max. fold increase of SMN protein. As for the experimental part: The SMN HTRF (homogeneous time resolved fluorescence) assay is used to quantify the level of SMN protein in SMA patient fibroblast cells treated with test compounds. Materials used and respective sources are listed below in Table 4.
Cells are thawed and cultured in DMEM-10% FBS for 72 hours. Cells are trypsinized, counted and re-suspended to a concentration of 25,000 cells/mL in DMEM-10% FBS. The cell suspensions are plated at 5,000 cells per well in a 96 well microtiter plate and incubated for 3 to 5 hours. Test compounds are serially diluted 3.16-fold in 100% DMSO to generate a 7-point concentration curve. 1 μL of test compound solution is transferred to cell-containing wells and cells are incubated for 48 hours in a cell culture incubator (37° C., 5% CO2, 100% relative humidity). Triplicate samples are set up for each test compound concentration. After 48 hours, the supernatant is removed from the wells and 25 μL of the RIPA lysis buffer, containing protease inhibitors, is added to the wells and incubated with shaking at room temperature for 1 hour. 25 μL of the diluent is added and then 35 μL of the resulting lysate is transferred to a 384-well plate, where each well contains 5 μL of the antibody solution (1:100 dilution of anti-SMN d2 and anti-SMN cryptate in SMN reconstitution buffer). The plate is centrifuged for 1 minute to bring the solution to the bottom of the wells, then incubated overnight at room temperature. Fluorescence for each well of the plate at 665 nm and 620 nm is measured on an EnVision multilabel plate reader (Perkin-Elmer).
The normalized fluorescence signal is calculated for each sample, Blank and vehicle control well by dividing the signal at 665 nm by the signal at 620 nm. Normalizing the signal accounts for possible fluorescence quenching due to the matrix effect of the lysate. The ΔF value (a measurement of SMN protein abundance as a percent value) for each sample well is calculated by subtracting the normalized average fluorescence for the Blank control wells from the normalized fluorescence for each sample well, then dividing this difference by the normalized average fluorescence for the Blank control wells and multiplying the resulting value by 100. The ΔF value for each sample well represents the SMN protein abundance from test compound-treated samples. The ΔF value for each sample well is divided by the ΔF value for the vehicle control wells to calculate the fold increase in SMN protein abundance relative to the vehicle control. Table 5 provides EC1.5× concentrations for SMN protein expression that was obtained from the 7-point concentration data generated according to the above procedure for particular compounds of the present invention.
Table 6 provides the maximum fold increase of SMN protein that was obtained from the 7-point concentration data generated according to the above procedure for particular compounds of the present invention
On the technique in general: TR-FRET usually uses a lanthanide donor and a delayed reading to cut background.

The subject of assay [2] is full length SMN2 minigene mRNA (HEK293H cells stably transfected with the SMN2-A minigene construct). The experiment in a line: RT-qPCR assay for SMN2 minigene pre-mRNA splicing in cultured cells. The format is cell-based. As to conditions: Homo sapiens, HEK293-H, 24 hours, 7-point concentration curve, concentration giving 1.5-fold FL SMN2mini mRNA vs vehicle, read-out: EC1.5x minigene (EC1.5x concentration for production of full length SMN2 minigene mRNA). The procedure: The reverse transcription-quantitative PCR-based (RT-qPCR) assay is used to quantify the level of the full length SMN2 minigene (referred to herein by the term “FL SMN2mini”) mRNA containing SMN2 exon 7 in a HEK293H cell line stably transfected with said minigene and treated with a test compound. Materials used and respective sources are listed below in Table 1.
The SMN2-A minigene construct was prepared as described in International Patent Application WO2009/151546A1 page 145 paragraph [00400] to page 147 paragraph [00412] (incl. FIG. 1 and FIG. 3 therein).
HEK293H cells stably transfected with the SMN2-A minigene construct (10,000 cells/well) are seeded in 200 μL of cell culture medium (DMEM plus 10% FBS, with 200 μg/mL hygromycin) in 96-well flat-bottom plates and the plate is immediately swirled to ensure proper dispersal of cells and the formation of an even monolayer of cells. Cells are allowed to attach for 6 hours. Test compounds are serially diluted 3.16-fold in 100% DMSO to generate a 7-point concentration curve. A solution of test compound (1 μL, 200× in DMSO) is added to each cell-containing well and the plate is incubated for 24 hours in a cell culture incubator (37° C., 5% CO2, 100% relative humidity). 2 replicates are prepared for each test compound concentration. The cells are then lysed in the Cells-To-Ct lysis buffer and the lysate is stored at −80° C.
Full length SMN2-A minigene and GAPDH mRNA are quantified using the primers and probes referenced in Table 2. Primer SMN Forward A (SEQ ID NO.1) hybridizes to a nucleotide sequence in exon 7 (nucleotide 22 to nucleotide 40), primer SMN Reverse A (SEQ ID NO.2) hybridizes to a nucleotide sequence in the coding sequence of Firefly luciferase, SMN Probe A (SEQ ID NO.3) hybridizes to a nucleotide sequence in exon 7 (nucleotide 50 to nucleotide 54) and exon 8 (nucleotide 1 to nucleotide 21). The combination of these three oligonucleotides detects only SMN1 or SMN2 minigenes (RT-qPCR) and will not detect endogenous SMN1 or SMN2 genes.
The SMN forward and reverse primers are used at final concentrations of 0.4 μM. The SMN probe is used at a final concentration of 0.15 μM. The GAPDH primers are used at final concentrations of 0.2 μM and the probe at 0.15 μM.
The SMN2-minigene GAPDH mix (15 μL total volume) is prepared by combining 7.5 of 2×RT-PCR buffer, 0.4 μL of 25×RT-PCR enzyme mix, 0.75 μL of 20× GAPDH primer-probe mix, […] of water, 2 μL of 10-fold diluted cell lysate, 0.06 μL of 100 μM SMN forward primer, 0.06 μL of 100 μM SMN reverse primer, and 0.225 μL of 100 μM SMN probe.
PCR is carried out at the following temperatures for the indicated time: Step 1: 48° C. (15 min); Step 2: 95° C. (10 min); Step 3: 95° C. (15 sec); Step 4: 60° C. (1 min); then repeat Steps 3 and 4 for a total of 40 cycles.
Each reaction mixture contains both SMN2-A minigene and GAPDH primers/probe sets (multiplex design), allowing simultaneous measurement of the levels of two transcripts.
The increase in the abundance of the FL SMN2mini mRNA relative to that in cells treated with vehicle control is determined from real-time PCR data using a modified ΔΔCt method (as described in Livak and Schmittgen, Methods, 2001, 25:402-8). The amplification efficiency E is calculated from the slope of the amplification curve for FL SMN2mini and GAPDH individually. The abundance of FL SMN2mini and GAPDH mRNA are then calculated as (1+E)^−Ct, where Ct is the threshold value for each amplicon. The abundance of FL SMN2mini mRNA is normalized to GAPDH mRNA abundance. The normalized FL SMN2mini mRNA abundance from test compound-treated samples is then divided by normalized FL SMN2mini mRNA abundance from vehicle-treated cells to determine the level of FL SMN2mini mRNA relative to vehicle control. […]
On the technique in general: Quantitative PCR measures a nucleic acid by following its amplification.

For the compound `Cc1cn2cc(NC(=O)c3ccc(N4CC[C@H](N5CCCC5)C4)cc3F)ncc2n1` [Example 24, 2-fluoro-N-(2-methylimidazo[1,2-a]pyrazin-6-yl)-4-[(3S)-3-pyrrolidin-1-ylpyrrolidin-1-yl]benzamide], the EC (1.5-fold) in assay [1] turned out to be 0.113 µM; in assay [2], 0.051 µM. The maximal fold induction in assay [1] was 1.75.
For `Cc1cn2cc(NC(=O)c3ccc(N4CCN[C@H](C)C4)cc3F)ncc2n1` [Example 25, 2-fluoro-N-(2-methylimidazo[1,2-a]pyrazin-6-yl)-4-[(3R)-3-methylpiperazin-1-yl]benzamide hydrochloride], in that order: 0.123 µM, 0.0146 µM and 1.88.
For `Cc1cn2cc(NC(=O)c3ccc(N4CCNC5(CC5)C4)cc3F)ncc2n1` [Example 26, 4-(4,7-diazaspiro[2.5]octan-7-yl)-2-fluoro-N-(2-methylimidazo[1,2-a]pyrazin-6-yl)benzamide hydrochloride], in that order: 1.61 µM, 0.0596 µM and 1.57.
For `Cc1cn2cc(NC(=O)c3ccc(N4C[C@@H](C)N[C@@H](C)C4)cc3F)ncc2n1` [Example 27, 4-[(3S,5R)-3,5-dimethylpiperazin-1-yl]-2-fluoro-N-(2-methylimidazo[1,2-a]pyrazin-6-yl)benzamide], in that order: 1.52 µM, 0.0167 µM and 1.85.
`Cc1cn2cc(NC(=O)c3c(F)cc(N4CCNCC4)cc3Cl)ncc2n1` [Example 28, 2-chloro-6-fluoro-N-(2-methylimidazo[1,2-a]pyrazin-6-yl)-4-piperazin-1-ylbenzamide hydrochloride]: the EC (1.5-fold) worked out at 8.76 µM in assay [1] and 2.03 µM in assay [2]. Moreover, in assay [1], the maximal fold induction came to 1.65.
In the case of `Cc1cn2cc(NC(=O)c3cc(F)c(N4CCNC(C)C4)cc3F)ncc2n1` (stereo not drawn) [Example 29, 2,5-difluoro-N-(2-methylimidazo[1,2-a]pyrazin-6-yl)-4-(3-methylpiperazin-1-yl)benzamide hydrochloride], the values for the EC (1.5-fold) in assay [1] and in assay [2] were 0.495 µM and 0.0852 µM, respectively. The maximal fold induction in assay [1] was determined as 1.91.
In the same order, the values of `Cc1cn2cc(NC(=O)c3ccc(N4CCNC(C)C4)c(F)c3F)ncc2n1` (stereo not drawn) [Example 30, 2,3-difluoro-N-(2-methylimidazo[1,2-a]pyrazin-6-yl)-4-(3-methylpiperazin-1-yl)benzamide hydrochloride] are 0.603 µM, 0.165 µM and 1.82.
In the same order, the values of `COc1cc(N2C[C@@H](C)N[C@@H](C)C2)ccc1C(=O)Nc1cn2cc(C)nc2cn1` [Example 31, 4-[(3R,5S)-3,5-dimethylpiperazin-1-yl]-2-methoxy-N-(2-methylimidazo[1,2-a]pyrazin-6-yl)benzamide] are 0.221 µM, 0.0358 µM and 1.87.
In the same order, the values of `CC[C@@H]1CN(c2ccc(C(=O)Nc3cn4cc(C)nc4cn3)c(F)c2)CCN1` [Example 32, 4-[(3R)-3-ethylpiperazin-1-yl]-2-fluoro-N-(2-methylimidazo[1,2-a]pyrazin-6-yl)benzamide hydrochloride] are 0.126 µM, 0.0268 µM and 1.81.
Consider `Cc1cn2cc(NC(=O)c3ccc(N4CC[C@@H](N5CCCC5)C4)cc3F)ncc2n1` [Example 33, 2-fluoro-N-(2-methylimidazo[1,2-a]pyrazin-6-yl)-4-[(3R)-3-pyrrolidin-1-ylpyrrolidin-1-yl]benzamide], for which the EC (1.5-fold) in assay [1] was determined as 0.122 µM; in assay [2] it was 0.0222 µM. Besides, the maximal fold induction in assay [1] was found to be 1.78.
For `COc1cc(N2CCNC3(CC3)C2)ccc1C(=O)Nc1cn2cc(C)nc2cn1` [Example 34, 4-(4,7-diazaspiro[2.5]octan-7-yl)-2-methoxy-N-(2-methylimidazo[1,2-a]pyrazin-6-yl)benzamide], in that order: 1.25 µM, 0.214 µM and 1.69.
In the same order, the values of `Cc1cn2cc(NC(=O)c3ccc(N4CCNC(C)(C)C4)cc3F)ncc2n1` [Example 35, 4-(3,3-dimethylpiperazin-1-yl)-2-fluoro-N-(2-methylimidazo[1,2-a]pyrazin-6-yl)benzamide hydrochloride] are 0.505 µM, 0.0317 µM and 2.16.
In the same order, the values of `CC[C@@H]1CN(c2ccc(C(=O)Nc3cn4cc(C)nc4c(C4CC4)n3)c(F)c2)CCN1` [Example 36, N-(8-cyclopropyl-2-methylimidazo[1,2-a]pyrazin-6-yl)-4-[(3R)-3-ethylpiperazin-1-yl]-2-fluorobenzamide hydrochloride] are 1.09 µM, 0.0534 µM and 1.53.

(Values after patent publication US9975900B2, “Substituted imidazo[1,2-α]pyrazines for treating spinal muscular atrophy” (Hoffmann-La Roche Inc., priority 2014, dated 2018).)
